Test system: test plant species
Experiment: Post-emergent herbicidal activity test (greenhouse, foliar spray, visual growth reduction)
Assay type: in vivo
Settings: post-emergence, 336 h, ECHCG: barnyardgrass (Echinochloa crus-galli), 140 g ai/ha, 14 days after application, read-out: Visual Growth Reduction (%) 14 Days After Application, ECHCG
How it was run: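 Greenhouse plants at first–second true leaf stage sprayed overhead at 187 L/ha with compound in acetone/water/isopropanol/DMSO/crop oil/X-77 carrier; controls received solvent blank. Injury rated visually after 14 d on a 0–100% scale versus untreated and control plants, converted to growth reduction.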

Row | Structure (SMILES) | pest or weed control at 140 g/ha
1 | COC(=O)c1nc(-c2cc(OC)c(C(F)(F)F)cc2Cl)c(F)cc1Cl [F331, Methyl 3-chloro-6-(2-chloro-5-methoxy-4-(trifluoromethyl)phenyl)-5-fluoropicolinate] | 0 to 29%
2 | COC(=O)c1nc(-c2ccc(C(F)(F)F)c(C)c2)c(F)cc1Cl [F309, Methyl 3-chloro-5-fluoro-6-(3-methyl-4-(trifluoromethyl)phenyl)picolinate] | 0 to 29%

Same assay, conditions: post-emergence, 336 h, IPOHE: ivy-leaf morning glory (Ipomoea hederacea), 140 g ai/ha, 14 days after application, read-out: Visual Growth Reduction (%) 14 Days After Application, IPOHE

Row | Structure (SMILES) | pest or weed control at 140 g/ha
3 | COC(=O)c1nc(-c2cc(OC)c(C(F)(F)F)cc2Cl)c(F)cc1Cl [F331, Methyl 3-chloro-6-(2-chloro-5-methoxy-4-(trifluoromethyl)phenyl)-5-fluoropicolinate] | 95 to 100%
4 | COC(=O)c1nc(-c2ccc(C(F)(F)F)c(C)c2)c(F)cc1Cl [F309, Methyl 3-chloro-5-fluoro-6-(3-methyl-4-(trifluoromethyl)phenyl)picolinate] | 0 to 29%

Same assay, conditions: post-emergence, 336 h, KCHSC: kochia (Bassia scoparia), 140 g ai/ha, 14 days after application, read-out: Visual Growth Reduction (%) 14 Days After Application, KCHSC

Row | Structure (SMILES) | pest or weed control at 140 g/ha
5 | COC(=O)c1nc(-c2cc(OC)c(C(F)(F)F)cc2Cl)c(F)cc1Cl [F331, Methyl 3-chloro-6-(2-chloro-5-methoxy-4-(trifluoromethyl)phenyl)-5-fluoropicolinate] | 60 to 74%
6 | COC(=O)c1nc(-c2ccc(C(F)(F)F)c(C)c2)c(F)cc1Cl [F309, Methyl 3-chloro-5-fluoro-6-(3-methyl-4-(trifluoromethyl)phenyl)picolinate] | 0 to 29%

Same assay, conditions: post-emergence, 336 h, ORYSA: rice (Oryza sativa), 140 g ai/ha, 14 days after application, read-out: Visual Growth Reduction (%) 14 Days After Application, ORYSA

Row | Structure (SMILES) | pest or weed control at 140 g/ha
7 | COC(=O)c1nc(-c2cc(OC)c(C(F)(F)F)cc2Cl)c(F)cc1Cl [F331, Methyl 3-chloro-6-(2-chloro-5-methoxy-4-(trifluoromethyl)phenyl)-5-fluoropicolinate] | 0 to 29%
8 | COC(=O)c1nc(-c2ccc(C(F)(F)F)c(C)c2)c(F)cc1Cl [F309, Methyl 3-chloro-5-fluoro-6-(3-methyl-4-(trifluoromethyl)phenyl)picolinate] | 0 to 29%

Same assay, conditions: post-emergence, 336 h, SETFA: giant foxtail (Setaria faberi), 140 g ai/ha, 14 days after application, read-out: Visual Growth Reduction (%) 14 Days After Application, SETFA

Row | Structure (SMILES) | pest or weed control at 140 g/ha
9 | COC(=O)c1nc(-c2cc(OC)c(C(F)(F)F)cc2Cl)c(F)cc1Cl [F331, Methyl 3-chloro-6-(2-chloro-5-methoxy-4-(trifluoromethyl)phenyl)-5-fluoropicolinate] | 0 to 29%
10 | COC(=O)c1nc(-c2ccc(C(F)(F)F)c(C)c2)c(F)cc1Cl [F309, Methyl 3-chloro-5-fluoro-6-(3-methyl-4-(trifluoromethyl)phenyl)picolinate] | 0 to 29%

Same assay, conditions: post-emergence, 336 h, SORVU: grain sorghum (Sorghum vulgare), 140 g ai/ha, 14 days after application, read-out: Visual Growth Reduction (%) 14 Days After Application, SORVU

Row | Structure (SMILES) | pest or weed control at 140 g/ha
11 | COC(=O)c1nc(-c2cc(OC)c(C(F)(F)F)cc2Cl)c(F)cc1Cl [F331, Methyl 3-chloro-6-(2-chloro-5-methoxy-4-(trifluoromethyl)phenyl)-5-fluoropicolinate] | 45 to 59%
12 | COC(=O)c1nc(-c2ccc(C(F)(F)F)c(C)c2)c(F)cc1Cl [F309, Methyl 3-chloro-5-fluoro-6-(3-methyl-4-(trifluoromethyl)phenyl)picolinate] | 0 to 29%

Same assay, conditions: post-emergence, 336 h, STEME: common chickweed (Stellaria media), 140 g ai/ha, 14 days after application, read-out: Visual Growth Reduction (%) 14 Days After Application, STEME

Row | Structure (SMILES) | pest or weed control at 140 g/ha
13 | COC(=O)c1nc(-c2cc(OC)c(C(F)(F)F)cc2Cl)c(F)cc1Cl [F331, Methyl 3-chloro-6-(2-chloro-5-methoxy-4-(trifluoromethyl)phenyl)-5-fluoropicolinate] | 0 to 29%
14 | COC(=O)c1nc(-c2ccc(C(F)(F)F)c(C)c2)c(F)cc1Cl [F309, Methyl 3-chloro-5-fluoro-6-(3-methyl-4-(trifluoromethyl)phenyl)picolinate] | 0 to 29%

Same assay, conditions: post-emergence, 336 h, TRZAS: wheat, spring (Triticum aestivum), 140 g ai/ha, 14 days after application, read-out: Visual Growth Reduction (%) 14 Days After Application, TRZAS

Row | Structure (SMILES) | pest or weed control at 140 g/ha
15 | COC(=O)c1nc(-c2cc(OC)c(C(F)(F)F)cc2Cl)c(F)cc1Cl [F331, Methyl 3-chloro-6-(2-chloro-5-methoxy-4-(trifluoromethyl)phenyl)-5-fluoropicolinate] | 0 to 29%
16 | COC(=O)c1nc(-c2ccc(C(F)(F)F)c(C)c2)c(F)cc1Cl [F309, Methyl 3-chloro-5-fluoro-6-(3-methyl-4-(trifluoromethyl)phenyl)picolinate] | 0 to 29%

Same assay, conditions: post-emergence, 336 h, blackgrass (Alopecurus myosuroides), 14 Days After Application, 140 g ai/ha, read-out: Visual Growth Reduction (%) ALOMY

Row | Structure (SMILES) | pest or weed control at 140 g/ha
17 | COC(=O)c1nc(-c2cc(OC)c(C(F)(F)F)cc2Cl)c(F)cc1Cl [F331, Methyl 3-chloro-6-(2-chloro-5-methoxy-4-(trifluoromethyl)phenyl)-5-fluoropicolinate] | 0 to 29%
18 | COC(=O)c1nc(-c2ccc(C(F)(F)F)c(C)c2)c(F)cc1Cl [F309, Methyl 3-chloro-5-fluoro-6-(3-methyl-4-(trifluoromethyl)phenyl)picolinate] | 0 to 29%

Same assay, conditions: post-emergence, 336 h, canada thistle (Cirsium arvense), 14 Days After Application, 140 g ai/ha, read-out: Visual Growth Reduction (%) CIRAR

Row | Structure (SMILES) | pest or weed control at 140 g/ha
19 | COC(=O)c1nc(-c2ccc(C(F)(F)F)c(C)c2)c(F)cc1Cl [F309, Methyl 3-chloro-5-fluoro-6-(3-methyl-4-(trifluoromethyl)phenyl)picolinate] | 0 to 29%

Same assay, conditions: post-emergence, 336 h, crabgrass (Digitaria sanguinalis), 14 Days After Application, 140 g ai/ha, read-out: Visual Growth Reduction (%) DIGSA

Row | Structure (SMILES) | pest or weed control at 140 g/ha
20 | COC(=O)c1nc(-c2cc(OC)c(C(F)(F)F)cc2Cl)c(F)cc1Cl [F331, Methyl 3-chloro-6-(2-chloro-5-methoxy-4-(trifluoromethyl)phenyl)-5-fluoropicolinate] | 0 to 29%
21 | COC(=O)c1nc(-c2ccc(C(F)(F)F)c(C)c2)c(F)cc1Cl [F309, Methyl 3-chloro-5-fluoro-6-(3-methyl-4-(trifluoromethyl)phenyl)picolinate] | 0 to 29%

Same assay, conditions: post-emergence, 336 h, lambsquarters (Chenopodium album), 14 Days After Application, 140 g ai/ha, read-out: Visual Growth Reduction (%) CHEAL

Row | Structure (SMILES) | pest or weed control at 140 g/ha
22 | COC(=O)c1nc(-c2cc(OC)c(C(F)(F)F)cc2Cl)c(F)cc1Cl [F331, Methyl 3-chloro-6-(2-chloro-5-methoxy-4-(trifluoromethyl)phenyl)-5-fluoropicolinate] | 45 to 59%
23 | COC(=O)c1nc(-c2ccc(C(F)(F)F)c(C)c2)c(F)cc1Cl [F309, Methyl 3-chloro-5-fluoro-6-(3-methyl-4-(trifluoromethyl)phenyl)picolinate] | 45 to 59%

Same assay, conditions: post-emergence, 336 h, redroot pigweed (Amaranthus retroflexus), 14 Days After Application, 140 g ai/ha, read-out: Visual Growth Reduction (%) AMARE

Row | Structure (SMILES) | pest or weed control at 140 g/ha
24 | COC(=O)c1nc(-c2cc(OC)c(C(F)(F)F)cc2Cl)c(F)cc1Cl [F331, Methyl 3-chloro-6-(2-chloro-5-methoxy-4-(trifluoromethyl)phenyl)-5-fluoropicolinate] | 45 to 59%
25 | COC(=O)c1nc(-c2ccc(C(F)(F)F)c(C)c2)c(F)cc1Cl [F309, Methyl 3-chloro-5-fluoro-6-(3-methyl-4-(trifluoromethyl)phenyl)picolinate] | 45 to 59%

Same assay, conditions: post-emergence, 336 h, wild oat (Avena fatua), 14 Days After Application, 140 g ai/ha, read-out: Visual Growth Reduction (%) AVEFA

Row | Structure (SMILES) | pest or weed control at 140 g/ha
26 | COC(=O)c1nc(-c2cc(OC)c(C(F)(F)F)cc2Cl)c(F)cc1Cl [F331, Methyl 3-chloro-6-(2-chloro-5-methoxy-4-(trifluoromethyl)phenyl)-5-fluoropicolinate] | 0 to 29%
27 | COC(=O)c1nc(-c2ccc(C(F)(F)F)c(C)c2)c(F)cc1Cl [F309, Methyl 3-chloro-5-fluoro-6-(3-methyl-4-(trifluoromethyl)phenyl)picolinate] | 0 to 29%

Same assay, conditions: post-emergence, 336 h, yellow nutsedge (Cyperus esculentus), 14 Days After Application, 140 g ai/ha, read-out: Visual Growth Reduction (%) CYPES

Row | Structure (SMILES) | pest or weed control at 140 g/ha
28 | COC(=O)c1nc(-c2cc(OC)c(C(F)(F)F)cc2Cl)c(F)cc1Cl [F331, Methyl 3-chloro-6-(2-chloro-5-methoxy-4-(trifluoromethyl)phenyl)-5-fluoropicolinate] | 0 to 29%
29 | COC(=O)c1nc(-c2ccc(C(F)(F)F)c(C)c2)c(F)cc1Cl [F309, Methyl 3-chloro-5-fluoro-6-(3-methyl-4-(trifluoromethyl)phenyl)picolinate] | 0 to 29%

Reference: US20230017045A1, “PYRIDINE AND PYRIMIDINE CARBOXYLATE HERBICIDES AND METHODS OF USE THEREOF” (Dow AgroSciences LLC, priority 2017, published 2023)
